Results reported in PubChem BioAssay (NCI).
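Where inhibition never reached the appropriate level, the endpoint shown equals the highest concentration tested. Otherwise, values were interpolated linearly from a five-concentration, 48-hour dose response in 96-well plates. GI50 = concentration required for 50% inhibition of growth. At the TGI there is no net growth.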

Key:
Experiment in all cases: NCI anticancer screen, dose series, 48 h
[1] = system: SF-295 CNS
[2] = system: DU-145 prostate
[3] = system: A549 NSCLC
[4] = system: NCI-H522 lung
[5] = system: RXF 393 renal
[6] = system: 786-0 renal
[7] = system: NCI-H23 lung
[8] = system: SW-620 colon
[9] = system: LOX IMVI melanoma
[10] = system: IGROV1 ovarian
[11] = system: CCRF-CEM leukemia
[12] = system: UO-31 renal
[13] = system: SNB-75 CNS
[14] = system: COLO 205 colon
[15] = system: OVCAR-5 ovarian
[16] = system: NCI-H226 lung
[17] = system: HT29 colon
[18] = system: KM12 colon
[19] = system: HOP-62 NSCLC
[20] = system: HCT-15 colon
[21] = system: MOLT-4 leukemia
[22] = system: OVCAR-8 ovarian
[23] = system: UACC-257 melanoma
[24] = system: MCF7 breast
[25] = system: SK-MEL-28 melanoma
[26] = system: NCI/ADR-RES ovarian
[27] = system: SN12C renal
[28] = system: SK-MEL-5 melanoma
[29] = system: SNB-19 CNS
[30] = system: SR leukemia
[31] = system: M14 melanoma
[32] = system: RPMI-8226 leukemia
[33] = system: SF-268 CNS
[34] = system: TK-10 renal
[35] = system: BT-549 breast
[36] = system: MDA-MB-435
[37] = system: HL-60(TB) leukemia
[38] = system: HCC-2998 colon
[39] = system: U251 CNS
[40] = system: HCT-116 colon
[41] = system: EKVX NSCLC
[42] = system: A498 renal
[43] = system: T-47D breast
[44] = system: SK-MEL-2 melanoma
[45] = system: UACC-62 melanoma
[46] = system: NCI-H460 lung
[47] = system: SK-OV-3 ovarian
[48] = system: OVCAR-3 ovarian
[49] = system: K-562 leukemia
[50] = system: ACHN renal
[51] = system: MALME-3M melanoma
[52] = system: OVCAR-4 ovarian
[53] = system: SF-539 CNS
[54] = system: HOP-92 NSCLC
[55] = system: HS 578T breast
[56] = system: MDA-MB-231 breast
[57] = system: PC-3 prostate
[58] = system: CAKI-1 renal

O=c1cc(N2CCOCC2)oc2c(-c3ccc4c(c3)OCCO4)csc12 showed a GI50 [1] of 0.307 µM, a TGI [1] of 3.67 µM and a GI50 [2] of 0.73 µM. For the same compound, the TGI [2] was over 100 µM, the GI50 [3] was 0.583 µM and the TGI [3] was 10.5 µM. For the same compound, the GI50 [4] was 0.282 µM, the TGI [4] was 4.16 µM and the GI50 [5] was 0.405 µM. For the same compound, the TGI [5] was 3.48 µM, the GI50 [6] was 0.352 µM and the TGI [6] was 6.31 µM. It also gave a GI50 [7] of 0.76 µM, a TGI [7] of 17.3 µM and a GI50 [8] of 0.978 µM. For the same compound, the TGI [8] was 16.3 µM, the GI50 [9] was 0.425 µM and the TGI [9] was 2.82 µM. It also gave a GI50 [10] of 0.262 µM, a TGI [10] of 1.47 µM and a GI50 [11] of 1.49 µM. It also gave a TGI [11] of over 61.9 µM, a GI50 [12] of 0.167 µM and a TGI [12] of 1.79 µM. It also gave a GI50 [13] of 0.127 µM, a TGI [13] of 0.765 µM and a GI50 [14] of 0.417 µM. For the same compound, the TGI [14] was 2.74 µM, the GI50 [15] was 0.445 µM and the TGI [15] was over 62.9 µM. The GI50 [16] was 0.492 µM, the TGI [16] was 11.7 µM and the GI50 [17] was 0.379 µM. The TGI [17] was 12.2 µM, the GI50 [18] was 1.08 µM and the TGI [18] was over 38.6 µM. It also gave a GI50 [19] of 0.302 µM, a TGI [19] of 5.33 µM and a GI50 [20] of 0.471 µM. For the same compound, the TGI [20] was over 40.8 µM, the GI50 [21] was 0.628 µM and the TGI [21] was 6.24 µM. The GI50 [22] was 0.498 µM, the TGI [22] was 12 µM and the GI50 [23] was 0.608 µM. The TGI [23] was 7.95 µM, the GI50 [24] was 0.284 µM and the TGI [24] was 11.3 µM. For the same compound, the GI50 [25] was 0.579 µM, the TGI [25] was 11.4 µM and the GI50 [26] was 0.59 µM. It also gave a TGI [26] of 19.7 µM, a GI50 [27] of 0.484 µM and a TGI [27] of over 100 µM. It also gave a GI50 [28] of 0.59 µM, a TGI [28] of 2.16 µM and a GI50 [29] of 1.18 µM. It also gave a TGI [29] of 42.8 µM, a GI50 [30] of 0.519 µM and a TGI [30] of 8.57 µM. It also gave a GI50 [31] of 0.451 µM, a TGI [31] of 4.86 µM and a GI50 [32] of 0.439 µM. For the same compound, the TGI [32] was 4.66 µM, the GI50 [33] was 0.687 µM and the TGI [33] was 21.6 µM. The GI50 [34] was 0.257 µM, the TGI [34] was 1.29 µM and the GI50 [35] was 0.332 µM. For the same compound, the TGI [35] was 4.1 µM, the GI50 [36] was 0.428 µM and the TGI [36] was 33.6 µM. It also gave a GI50 [37] of 0.298 µM, a TGI [37] of 2.89 µM and a GI50 [38] of 0.746 µM. The TGI [38] was 8.79 µM, the GI50 [39] was 1.08 µM and the TGI [39] was 35 µM. For the same compound, the GI50 [40] was 0.775 µM, the TGI [40] was 11.1 µM and the GI50 [41] was 0.333 µM. It also gave a TGI [41] of 6.15 µM, a GI50 [42] of 0.102 µM and a TGI [42] of 0.662 µM. The GI50 [43] was 0.167 µM, the TGI [43] was 0.643 µM and the GI50 [44] was 0.798 µM. It also gave a TGI [44] of 5.03 µM, a GI50 [45] of 0.325 µM and a TGI [45] of 2.06 µM. The GI50 [46] was 0.658 µM, the TGI [46] was 14.2 µM and the GI50 [47] was 0.272 µM. It also gave a TGI [47] of 1.2 µM, a GI50 [48] of 0.526 µM and a TGI [48] of 11.3 µM. For the same compound, the GI50 [49] was 1.17 µM, the TGI [49] was over 100 µM and the GI50 [50] was 0.339 µM. For the same compound, the TGI [50] was 10.7 µM, the GI50 [51] was 0.224 µM and the TGI [51] was 1.8 µM. The GI50 [52] was 0.413 µM, the TGI [52] was over 61.9 µM and the GI50 [53] was 0.425 µM. It also gave a TGI [53] of 3.61 µM, a GI50 [54] of 0.214 µM and a TGI [54] of 2.56 µM. For the same compound, the GI50 [55] was 0.221 µM, the TGI [55] was 1.4 µM and the GI50 [56] was 0.382 µM. It also gave a TGI [56] of 14.5 µM, a GI50 [57] of 0.319 µM and a TGI [57] of over 80.2 µM.
Work on CC12CC[C@@H]3c4cc5c(cc4CC[C@H]3[C@@H]1CCC2O)oc1cc(F)ccc15 (stereo not given in full) yielded a GI50 [1] of 18.3 µM, a TGI [1] of 40.2 µM and a GI50 [2] of 17.8 µM. The TGI [2] was 31.6 µM, the GI50 [3] was 33.1 µM and the TGI [3] was over 100 µM. The GI50 [4] was 23.2 µM, the TGI [4] was over 100 µM and the GI50 [6] was 16.1 µM. For the same compound, the TGI [6] was 37.4 µM, the GI50 [7] was 26.1 µM and the TGI [7] was 99.5 µM. It also gave a GI50 [8] of 25.6 µM, a TGI [8] of 78.9 µM and a GI50 [9] of 12.1 µM. The TGI [9] was 24.5 µM, the GI50 [10] was 16.7 µM and the TGI [10] was 36.9 µM. The GI50 [11] was 27.9 µM, the TGI [11] was over 100 µM and the GI50 [12] was 24.3 µM. For the same compound, the TGI [12] was 68 µM, the GI50 [13] was 15.5 µM and the TGI [13] was 35.5 µM. The GI50 [14] was 17.1 µM, the TGI [14] was 36.2 µM and the GI50 [15] was 24.8 µM. The TGI [15] was over 100 µM, the GI50 [16] was 14.9 µM and the TGI [16] was 53 µM. For the same compound, the GI50 [17] was 12.5 µM, the TGI [17] was 25 µM and the GI50 [18] was 17.8 µM. It also gave a TGI [18] of 45.5 µM, a GI50 [19] of 18.7 µM and a TGI [19] of 45.4 µM. It also gave a GI50 [20] of 10.8 µM, a TGI [20] of 31.8 µM and a GI50 [21] of 16.2 µM. For the same compound, the TGI [21] was 40.6 µM, the GI50 [22] was 20 µM and the TGI [22] was 62.6 µM. The GI50 [58] was 16.1 µM, the TGI [58] was 37.4 µM and the GI50 [23] was 21.6 µM. For the same compound, the TGI [23] was 74.8 µM, the GI50 [24] was 31.7 µM and the TGI [24] was 82.7 µM. The GI50 [25] was 20.2 µM, the TGI [25] was 58.8 µM and the GI50 [26] was 18.6 µM. It also gave a TGI [26] of 55.5 µM, a GI50 [27] of 19 µM and a TGI [27] of 42.5 µM. For the same compound, the GI50 [28] was 18.8 µM, the TGI [28] was 36 µM and the GI50 [29] was 19 µM. It also gave a TGI [29] of 40.9 µM, a GI50 [30] of 15.9 µM and a TGI [30] of 31 µM. The GI50 [31] was 20.8 µM, the TGI [31] was 74.1 µM and the GI50 [32] was 14.6 µM. For the same compound, the TGI [32] was over 100 µM, the GI50 [33] was 18.8 µM and the TGI [33] was 62.8 µM. The GI50 [34] was 15.6 µM, the TGI [34] was 33.9 µM and the GI50 [35] was 17.7 µM. For the same compound, the TGI [35] was 39.1 µM, the GI50 [36] was 39.5 µM and the TGI [36] was over 100 µM. For the same compound, the GI50 [37] was 7.74 µM, the TGI [37] was 39.2 µM and the GI50 [38] was 23.2 µM. It also gave a TGI [38] of over 100 µM, a GI50 [39] of 14.1 µM and a TGI [39] of 28.6 µM. The GI50 [40] was 13.9 µM, the TGI [40] was 30.6 µM and the GI50 [41] was 15.5 µM. For the same compound, the TGI [41] was 49 µM, the TGI [42] was 23.6 µM and the GI50 [43] was 12.3 µM. The TGI [43] was 52.6 µM, the GI50 [45] was 24.4 µM and the TGI [45] was over 100 µM. The GI50 [46] was 15.2 µM, the TGI [46] was 36.3 µM and the GI50 [47] was 21.5 µM. The TGI [47] was 52.1 µM, the GI50 [48] was 19.1 µM and the TGI [48] was 43.3 µM. It also gave a GI50 [49] of 8.68 µM, a TGI [49] of 47.7 µM and a GI50 [50] of 15.8 µM. The TGI [50] was 35.4 µM, the GI50 [51] was 20.3 µM and the TGI [51] was 49.8 µM. The GI50 [52] was 17 µM, the TGI [52] was 55.6 µM and the GI50 [53] was 22.7 µM. It also gave a TGI [53] of 54.7 µM, a GI50 [54] of 21.1 µM and a TGI [54] of 63 µM. It also gave a GI50 [55] of 26.3 µM, a TGI [55] of 49.6 µM and a GI50 [56] of 14.1 µM. It also gave a TGI [56] of 34 µM, a GI50 [57] of 17.3 µM and a TGI [57] of 43.2 µM.
